Data: patent US20260262643A1, “HERBICIDAL BENZOXAZINES” (FMC CORPORATION, priority 2022, published 2026)

Assays:
barnyardgrass [1] = experiment: Test C preemergence; assay type: in vivo, Echinochloa crusgalli
Summary of the method: (§1)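 Test material, in non-phytotoxic solvent with surfactant, was sprayed on the soil directly after seeding (preemergence) or on young plants of 2–10 cm with one to two leaves (postemergence). Greenhouse, 10 days; 0–100 visual control scale.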

blackgrass [2] = experiment: Test C preemergence; assay type: in vivo, Alopecurus myosuroides
Summary of the method: as §1

corn [3] = experiment: Test C preemergence; assay type: in vivo, Zea mays
Summary of the method: as §1

green foxtail [4] = experiment: Test C preemergence; assay type: in vivo, Setaria viridis
Summary of the method: as §1

kochia [5] = experiment: Test C preemergence; assay type: in vivo, Bassia scoparia
Summary of the method: as §1

oat, wild [6] = experiment: Test C preemergence; assay type: in vivo, Avena fatua
Summary of the method: as §1

pigweed, palmer [7] = experiment: Test C preemergence; assay type: in vivo, Amaranthus palmeri
Summary of the method: as §1

ragweed [8] = experiment: Test C preemergence; assay type: in vivo, Ambrosia artemisiifolia
Summary of the method: as §1

ryegrass, Italian [9] = experiment: Test C preemergence; assay type: in vivo, Lolium multiflorum
Summary of the method: as §1

soybean [10] = experiment: Test C preemergence; assay type: in vivo, Glycine max
Summary of the method: as §1

wheat [11] = experiment: Test C preemergence; assay type: in vivo, Triticum aestivum
Summary of the method: as §1

barnyardgrass [12] = experiment: Test C postemergence; assay type: in vivo, Echinochloa crusgalli; details: 10 days, 0 to 100 scale (0 no effect, 100 complete control)
Summary of the method: as §1

blackgrass [13] = experiment: Test C postemergence; assay type: in vivo, Alopecurus myosuroides; details: 10 days, 0 to 100 scale (0 no effect, 100 complete control)
Summary of the method: as §1

corn [14] = experiment: Test C postemergence; assay type: in vivo, Zea mays; details: 10 days, 0 to 100 scale (0 no effect, 100 complete control)
Summary of the method: as §1

green foxtail [15] = experiment: Test C postemergence; assay type: in vivo, Setaria viridis; details: 10 days, 0 to 100 scale (0 no effect, 100 complete control)
Summary of the method: as §1

kochia [16] = experiment: Test C postemergence; assay type: in vivo, Bassia scoparia; details: 10 days, 0 to 100 scale (0 no effect, 100 complete control)
Summary of the method: as §1

oat, wild [17] = experiment: Test C postemergence; assay type: in vivo, Avena fatua; details: 10 days, 0 to 100 scale (0 no effect, 100 complete control)
Summary of the method: as §1

pigweed, palmer [18] = experiment: Test C postemergence; assay type: in vivo, Amaranthus palmeri; details: 10 days, 0 to 100 scale (0 no effect, 100 complete control)
Summary of the method: as §1

ragweed [19] = experiment: Test C postemergence; assay type: in vivo, Ambrosia artemisiifolia; details: Postemergence, 125 g ai/ha; 0 to 100 scale (0 no effect, 100 complete control), 10 days
Summary of the method: as §1

ryegrass, Italian [20] = experiment: Test C postemergence; assay type: in vivo, Lolium multiflorum; details: Postemergence, 125 g ai/ha; 0 to 100 scale (0 no effect, 100 complete control), 10 days
Summary of the method: as §1

soybean [21] = experiment: Test C postemergence; assay type: in vivo, Glycine max; details: Postemergence, 125 g ai/ha; 0 to 100 scale (0 no effect, 100 complete control), 10 days
Summary of the method: as §1

wheat [22] = experiment: Test C postemergence; assay type: in vivo, Triticum aestivum; details: Postemergence, 125 g ai/ha; 0 to 100 scale (0 no effect, 100 complete control), 10 days
Summary of the method: as §1

horseweed = experiment: Test C postemergence; assay type: in vivo, Erigeron canadensis; details: 10 days, 0 to 100 scale (0 no effect, 100 complete control)
Summary of the method: as §1

barnyardgrass [23] = experiment: Test D flooded paddy test; assay type: in vivo, Echinochloa crus-galli; details: 250 g ai/ha, applied to paddy water, visual rating after 13 to 14 days, scale 0 to 100 (0 no effect, 100 complete control)
Summary of the method: (§2)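 Seedlings reached the 2-leaf stage, then pots were flooded to 3 cm over the soil surface. Compound was applied into the water, depth was maintained, and plants stayed in the greenhouse 13 to 14 days before visual scoring (0–100) relative to controls.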

ducksalad = experiment: Test D flooded paddy test; assay type: in vivo, Heteranthera limosa; details: 250 g ai/ha, applied to paddy water, visual rating after 13 to 14 days, scale 0 to 100 (0 no effect, 100 complete control)
Summary of the method: as §2

rice = experiment: Test D flooded paddy test; assay type: in vivo, Oryza sativa; details: 250 g ai/ha, applied to paddy water, visual rating after 13 to 14 days, scale 0 to 100 (0 no effect, 100 complete control)
Summary of the method: as §2

sedge, umbrella = experiment: Test D flooded paddy test; assay type: in vivo, Cyperus difformis; details: 250 g ai/ha, applied to paddy water, visual rating after 13 to 14 days, scale 0 to 100 (0 no effect, 100 complete control)
Summary of the method: as §2

[24] = 500 g ai/ha, preemergence, 0 to 100 scale (0 no effect, 100 complete control)
[25] = Preemergence, 125 g ai/ha, 0 to 100 scale, 0 no effect, 100 complete control

Cc1ccc(-n2cnc(C(C)(C)C#N)n2)cc1C(=O)N1C[C@H](C)Oc2c(Cl)cccc21 [Compound 397]
15: Plant response rating, Rice (Flood) (rice)
70: Plant response rating, Blackgrass (blackgrass [2]; [25]) | Plant response rating, Soybean (soybean [10]; [25]) | Plant response rating, Corn (corn [14]; 500 g ai/ha, postemergence) | Plant response rating, Corn (corn [14]; Postemergence, 125 g ai/ha) | Plant response rating, Oat, Wild (oat, wild [17]; 500 g ai/ha, postemergence)
60: Plant response rating, Oat, Wild (oat, wild [6]; [25]) | Plant response rating, Barnyardgrass (barnyardgrass [12]; 500 g ai/ha, postemergence)
80: Ragweed plant response rating (ragweed [8]; [24]) | Plant response rating, Ryegrass, Italian (ryegrass, Italian [9]; [25]) | Plant response rating, Blackgrass (blackgrass [13]; Postemergence, 125 g ai/ha) | Plant response rating, Horseweed (horseweed; 500 g ai/ha, postemergence)
50: Plant response rating, Ragweed (ragweed [8]; [25]) | Plant response rating, Ryegrass, Italian (ryegrass, Italian [20]) | Plant response rating, Soybean (soybean [21]) | Plant response rating, Barnyardgrass (Flood) (barnyardgrass [23])
45: Plant response rating, Sedge, Umbrella (Flood) (sedge, umbrella)
30: Wheat plant response rating (wheat [11]; [24])
100: Barnyardgrass plant response rating (barnyardgrass [1]; [24]) | Foxtail, Green plant response rating (green foxtail [4]; [24]) | Plant response rating, Foxtail, Green (green foxtail [4]; [25]) | Kochia plant response rating (kochia [5]; [24]) | Pigweed, Palmer plant response rating (pigweed, palmer [7]; [24]) | Plant response rating, Pigweed, Palmer (pigweed, palmer [7]; [25]) | Soybean plant response rating (soybean [10]; [24]) | Plant response rating, Kochia (kochia [16]; 500 g ai/ha, postemergence) | Plant response rating, Pigweed, Palmer (pigweed, palmer [18]; 500 g ai/ha, postemergence) | Plant response rating, Pigweed, Palmer (pigweed, palmer [18]; Postemergence, 125 g ai/ha) | Plant response rating, Ragweed (ragweed [19])
10: Plant response rating, Corn (corn [3]; [25]) | Plant response rating, Wheat (wheat [11]; [25]) | Plant response rating, Ducksalad (Flood) (ducksalad)
20: Corn plant response rating (corn [3]; [24]) | Plant response rating, Oat, Wild (oat, wild [17]; Postemergence, 125 g ai/ha) | Plant response rating, Wheat (wheat [22])
40: Plant response rating, Barnyardgrass (barnyardgrass [12]; Postemergence, 125 g ai/ha) | Plant response rating, Horseweed (horseweed; Postemergence, 125 g ai/ha)
90: Plant response rating, Barnyardgrass (barnyardgrass [1]; [25]) | Blackgrass plant response rating (blackgrass [2]; [24]) | Plant response rating, Kochia (kochia [5]; [25]) | Oat, Wild plant response rating (oat, wild [6]; [24]) | Ryegrass, Italian plant response rating (ryegrass, Italian [9]; [24]) | Plant response rating, Blackgrass (blackgrass [13]; 500 g ai/ha, postemergence) | Plant response rating, Foxtail, Green (green foxtail [15]; 500 g ai/ha, postemergence) | Plant response rating, Foxtail, Green (green foxtail [15]; Postemergence, 125 g ai/ha) | Plant response rating, Kochia (kochia [16]; Postemergence, 125 g ai/ha)
